Assays:
[1] = tested on: Phosphatidylinositol 4,5-bisphosphate 3-kinase catalytic subunit alpha isoform (Homo sapiens), P42336 [E542K]; assay: Binding affinity to human partial length PIK3CA E542K mutant (R108 to N1068 residues) expressed in mammalian expression system assessed as residual binding level at 10 uM by Kinomescan method relative to control
[2] = target: Myosin light chain kinase, smooth muscle (Homo sapiens) (UniProt Q15746); assay: Binding affinity to wild-type human full length MYLK (M854 to E1845 residues) expressed in mammalian expression system assessed as residual binding level at 10 uM by Kinomescan method relative to control
[3] = tested on: Mast/stem cell growth factor receptor Kit (Homo sapiens), P10721 [A829P]; assay: Binding affinity to human partial length KIT A829P mutant (I571 to D952 residues) expressed in mammalian expression system assessed as residual binding level at 10 uM by Kinomescan method relative to control
[4] = target: Dual specificity tyrosine-phosphorylation-regulated kinase 1A (Homo sapiens) (UniProt Q13627); assay: Binding affinity to wild-type human partial length DYRK1A (H129 to S509 residues) expressed in mammalian expression system assessed as residual binding level at 10 uM by Kinomescan method relative to control
[5] = tested on: Serine/threonine-protein kinase B-raf (Homo sapiens), P15056 [V600E]; assay: Binding affinity to human partial length BRAF V600E mutant (S429 to E741 residues) expressed in mammalian expression system assessed as residual binding level at 10 uM by Kinomescan method relative to control
[6] = target: Atypical kinase COQ8B, mitochondrial (Homo sapiens) (UniProt Q96D53); assay: Binding affinity to wild-type human full length ADCK4 (M1 to S544 residues) expressed in bacterial expression system assessed as residual binding level at 10 uM by Kinomescan method relative to control
[7] = target: Mitogen-activated protein kinase 13 (Homo sapiens) (UniProt O15264); assay: Binding affinity to wild-type human full length p38-delta (M1 to L365 residues) expressed in bacterial expression system assessed as residual binding level at 10 uM by Kinomescan method relative to control
Chain of Mitogen-activated protein kinase 13 (Homo sapiens) (O15264 whole entry, the tested form may be a part): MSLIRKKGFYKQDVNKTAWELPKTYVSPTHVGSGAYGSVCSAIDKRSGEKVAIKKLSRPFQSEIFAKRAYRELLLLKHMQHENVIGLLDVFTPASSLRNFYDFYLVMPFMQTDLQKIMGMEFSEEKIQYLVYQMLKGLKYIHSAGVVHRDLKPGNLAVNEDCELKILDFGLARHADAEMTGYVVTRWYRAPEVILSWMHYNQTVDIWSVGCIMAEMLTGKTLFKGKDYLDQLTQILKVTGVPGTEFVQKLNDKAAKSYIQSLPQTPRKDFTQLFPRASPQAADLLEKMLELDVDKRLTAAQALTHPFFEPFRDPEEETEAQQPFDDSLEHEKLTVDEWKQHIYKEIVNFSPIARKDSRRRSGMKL

[8] = target: Serine/threonine-protein kinase Nek11 (Homo sapiens) (UniProt Q8NG66); assay: Binding affinity to wild-type human partial length NEK11 (M1 to E313 residues) expressed in mammalian expression system assessed as residual binding level at 10 uM by Kinomescan method relative to control
Chain of Serine/threonine-protein kinase Nek11 (Homo sapiens) (Q8NG66 whole entry, the tested form may be a part): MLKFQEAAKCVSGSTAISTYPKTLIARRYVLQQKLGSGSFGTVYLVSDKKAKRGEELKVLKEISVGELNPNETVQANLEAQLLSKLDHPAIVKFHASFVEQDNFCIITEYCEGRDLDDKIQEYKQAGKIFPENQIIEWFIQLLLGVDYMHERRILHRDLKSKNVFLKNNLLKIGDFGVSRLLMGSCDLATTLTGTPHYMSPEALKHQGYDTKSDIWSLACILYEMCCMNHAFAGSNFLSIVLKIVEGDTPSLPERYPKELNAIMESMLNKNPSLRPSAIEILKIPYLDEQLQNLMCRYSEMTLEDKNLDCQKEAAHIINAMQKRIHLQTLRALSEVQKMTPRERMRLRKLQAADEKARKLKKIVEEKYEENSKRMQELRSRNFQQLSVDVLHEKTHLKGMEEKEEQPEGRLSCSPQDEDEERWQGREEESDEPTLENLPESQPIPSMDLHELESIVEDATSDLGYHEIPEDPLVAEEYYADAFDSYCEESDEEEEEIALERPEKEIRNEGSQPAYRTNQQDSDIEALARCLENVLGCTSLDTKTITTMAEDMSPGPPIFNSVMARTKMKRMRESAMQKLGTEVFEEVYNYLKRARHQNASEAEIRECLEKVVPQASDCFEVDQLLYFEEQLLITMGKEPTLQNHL

[9] = tested on: MDR1; assay: in vitro; details: dog, MDCK-MDR1
Description: Efflux ratio of apparent permeability from basolateral to apical over apical to basolateral side in MDCK2-MDR1 cells by HPLC analysis

[10] = target: Death-associated protein kinase 2 (Homo sapiens) (UniProt Q9UIK4); assay: Binding affinity to wild-type human full length DAPK2 (M1 to S370 residues) expressed in bacterial expression system assessed as residual binding level at 10 uM by Kinomescan method relative to control
Chain of Death-associated protein kinase 2 (Homo sapiens) (Q9UIK4 whole entry, looked up, the tested form may be a part): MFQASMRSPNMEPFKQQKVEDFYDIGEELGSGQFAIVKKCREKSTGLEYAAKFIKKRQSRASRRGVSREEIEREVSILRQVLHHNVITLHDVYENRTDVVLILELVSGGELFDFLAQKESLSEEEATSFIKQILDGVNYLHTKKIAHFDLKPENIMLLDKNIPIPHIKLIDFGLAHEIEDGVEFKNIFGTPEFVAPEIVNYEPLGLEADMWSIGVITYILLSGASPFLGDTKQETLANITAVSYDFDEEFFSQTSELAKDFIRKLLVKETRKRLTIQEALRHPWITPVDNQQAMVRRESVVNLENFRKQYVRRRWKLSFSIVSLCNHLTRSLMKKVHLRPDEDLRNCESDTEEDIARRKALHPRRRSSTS

[11] = target: Hepatocyte growth factor receptor (Homo sapiens) (UniProt P08581); assay: Binding affinity to wild-type human partial length MET (D1010 to S1367 residues) expressed in bacterial expression system assessed as residual binding level at 10 uM by Kinomescan method relative to control
[12] = target: Aurora kinase C (Homo sapiens) (UniProt Q9UQB9); assay: Binding affinity to wild-type human full length AURKC (M1 to S275 residues) expressed in bacterial expression system assessed as residual binding level at 10 uM by Kinomescan method relative to control
[13] = target: Dual specificity tyrosine-phosphorylation-regulated kinase 2 (Homo sapiens) (UniProt Q92630); assay: Binding affinity to wild-type human full length DYRK2 (M1 to S528 residues) expressed in mammalian expression system assessed as residual binding level at 10 uM by Kinomescan method relative to control
Chain of Dual specificity tyrosine-phosphorylation-regulated kinase 2 (Homo sapiens) (Q92630 whole entry, the tested form may be a part): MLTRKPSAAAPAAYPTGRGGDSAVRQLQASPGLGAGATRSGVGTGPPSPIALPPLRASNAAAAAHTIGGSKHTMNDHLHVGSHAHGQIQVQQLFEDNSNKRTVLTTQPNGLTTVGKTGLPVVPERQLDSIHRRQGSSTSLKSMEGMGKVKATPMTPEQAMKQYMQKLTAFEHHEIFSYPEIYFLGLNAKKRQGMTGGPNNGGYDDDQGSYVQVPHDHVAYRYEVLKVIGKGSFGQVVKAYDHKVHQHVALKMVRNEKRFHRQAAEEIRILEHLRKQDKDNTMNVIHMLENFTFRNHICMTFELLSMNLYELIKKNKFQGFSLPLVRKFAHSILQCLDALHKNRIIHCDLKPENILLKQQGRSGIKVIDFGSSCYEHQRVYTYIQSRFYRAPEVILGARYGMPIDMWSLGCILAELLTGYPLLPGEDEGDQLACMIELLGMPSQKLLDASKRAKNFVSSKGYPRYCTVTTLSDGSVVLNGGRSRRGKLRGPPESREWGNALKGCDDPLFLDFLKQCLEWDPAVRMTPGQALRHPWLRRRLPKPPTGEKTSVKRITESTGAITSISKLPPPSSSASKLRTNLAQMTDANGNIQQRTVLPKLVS

[14] = target: Serine/threonine-protein kinase PRP4 homolog (Homo sapiens) (UniProt Q13523); assay: Binding affinity to wild-type human partial length PRP4 (D657 to I1007 residues) expressed in bacterial expression system assessed as residual binding level at 10 uM by Kinomescan method relative to control
[15] = target: Serine/threonine-protein kinase SIK2 (Homo sapiens) (UniProt Q9H0K1); assay: Binding affinity to wild-type human full length SIK2 (M1 to N926 residues) expressed in bacterial expression system assessed as residual binding level at 10 uM by Kinomescan method relative to control
[16] = target: Ephrin type-A receptor 4 (Homo sapiens) (UniProt P54764); assay: Binding affinity to wild-type human partial length EPHA4 (T601 to R897 residues) expressed in bacterial expression system assessed as residual binding level at 10 uM by Kinomescan method relative to control
Chain of Ephrin type-A receptor 4 (Homo sapiens) (P54764 whole entry, the tested form may be a part): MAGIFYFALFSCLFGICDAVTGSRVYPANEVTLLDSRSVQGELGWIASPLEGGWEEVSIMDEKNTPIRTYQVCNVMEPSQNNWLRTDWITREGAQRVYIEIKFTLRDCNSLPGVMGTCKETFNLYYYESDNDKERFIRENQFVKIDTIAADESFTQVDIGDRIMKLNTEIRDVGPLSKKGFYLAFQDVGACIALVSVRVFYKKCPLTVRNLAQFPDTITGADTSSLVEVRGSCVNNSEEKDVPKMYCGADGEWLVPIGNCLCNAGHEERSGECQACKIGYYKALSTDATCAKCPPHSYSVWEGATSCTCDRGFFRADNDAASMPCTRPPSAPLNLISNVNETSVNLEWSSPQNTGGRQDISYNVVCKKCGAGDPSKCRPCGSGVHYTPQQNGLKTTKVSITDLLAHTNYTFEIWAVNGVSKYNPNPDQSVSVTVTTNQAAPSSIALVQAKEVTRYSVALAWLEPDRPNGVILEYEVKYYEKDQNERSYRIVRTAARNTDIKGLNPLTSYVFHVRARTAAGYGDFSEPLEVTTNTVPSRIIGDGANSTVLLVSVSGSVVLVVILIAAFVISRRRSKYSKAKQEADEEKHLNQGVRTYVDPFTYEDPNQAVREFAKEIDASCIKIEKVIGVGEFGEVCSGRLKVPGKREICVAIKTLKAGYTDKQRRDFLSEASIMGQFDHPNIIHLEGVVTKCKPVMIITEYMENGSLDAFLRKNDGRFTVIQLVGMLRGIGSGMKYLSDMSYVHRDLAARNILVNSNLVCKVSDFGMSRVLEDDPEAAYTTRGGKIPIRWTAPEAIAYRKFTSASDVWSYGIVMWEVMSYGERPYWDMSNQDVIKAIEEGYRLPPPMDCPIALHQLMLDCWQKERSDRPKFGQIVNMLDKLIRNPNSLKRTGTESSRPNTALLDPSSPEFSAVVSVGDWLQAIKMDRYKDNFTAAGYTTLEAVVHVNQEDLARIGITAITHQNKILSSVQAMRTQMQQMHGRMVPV

[17] = target: Proto-oncogene tyrosine-protein kinase Src (Homo sapiens) (UniProt P12931); assay: Binding affinity to wild-type human partial length SRC (L240 to L536 residues) expressed in bacterial expression system assessed as residual binding level at 10 uM by Kinomescan method relative to control
[18] = target: Serine/threonine-protein kinase 32A (Homo sapiens) (UniProt Q8WU08); assay: Binding affinity to wild-type human full length YANK1 (M1 to L396 residues) expressed in mammalian expression system assessed as residual binding level at 10 uM by Kinomescan method relative to control
Chain of Serine/threonine-protein kinase 32A (Homo sapiens) (Q8WU08 whole entry, the tested form may be a part): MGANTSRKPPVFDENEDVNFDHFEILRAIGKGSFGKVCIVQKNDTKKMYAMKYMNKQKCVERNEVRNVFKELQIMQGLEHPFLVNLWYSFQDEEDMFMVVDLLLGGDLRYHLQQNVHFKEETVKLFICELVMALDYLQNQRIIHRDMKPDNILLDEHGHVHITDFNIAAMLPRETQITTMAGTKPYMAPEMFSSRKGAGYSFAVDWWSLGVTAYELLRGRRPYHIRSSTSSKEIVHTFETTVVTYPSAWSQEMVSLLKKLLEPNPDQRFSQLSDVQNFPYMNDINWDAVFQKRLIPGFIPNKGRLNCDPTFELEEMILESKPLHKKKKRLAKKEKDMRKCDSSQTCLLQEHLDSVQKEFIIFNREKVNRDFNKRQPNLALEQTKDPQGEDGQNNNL

[19] = target: Vascular endothelial growth factor receptor 3 (Homo sapiens) (UniProt P35916); assay: Binding affinity to wild-type human partial length FLT4 (E821 to E1196 residues) expressed in bacterial expression system assessed as residual binding level at 10 uM by Kinomescan method relative to control
Chain of Vascular endothelial growth factor receptor 3 (Homo sapiens) (P35916 whole entry, the tested form may be a part): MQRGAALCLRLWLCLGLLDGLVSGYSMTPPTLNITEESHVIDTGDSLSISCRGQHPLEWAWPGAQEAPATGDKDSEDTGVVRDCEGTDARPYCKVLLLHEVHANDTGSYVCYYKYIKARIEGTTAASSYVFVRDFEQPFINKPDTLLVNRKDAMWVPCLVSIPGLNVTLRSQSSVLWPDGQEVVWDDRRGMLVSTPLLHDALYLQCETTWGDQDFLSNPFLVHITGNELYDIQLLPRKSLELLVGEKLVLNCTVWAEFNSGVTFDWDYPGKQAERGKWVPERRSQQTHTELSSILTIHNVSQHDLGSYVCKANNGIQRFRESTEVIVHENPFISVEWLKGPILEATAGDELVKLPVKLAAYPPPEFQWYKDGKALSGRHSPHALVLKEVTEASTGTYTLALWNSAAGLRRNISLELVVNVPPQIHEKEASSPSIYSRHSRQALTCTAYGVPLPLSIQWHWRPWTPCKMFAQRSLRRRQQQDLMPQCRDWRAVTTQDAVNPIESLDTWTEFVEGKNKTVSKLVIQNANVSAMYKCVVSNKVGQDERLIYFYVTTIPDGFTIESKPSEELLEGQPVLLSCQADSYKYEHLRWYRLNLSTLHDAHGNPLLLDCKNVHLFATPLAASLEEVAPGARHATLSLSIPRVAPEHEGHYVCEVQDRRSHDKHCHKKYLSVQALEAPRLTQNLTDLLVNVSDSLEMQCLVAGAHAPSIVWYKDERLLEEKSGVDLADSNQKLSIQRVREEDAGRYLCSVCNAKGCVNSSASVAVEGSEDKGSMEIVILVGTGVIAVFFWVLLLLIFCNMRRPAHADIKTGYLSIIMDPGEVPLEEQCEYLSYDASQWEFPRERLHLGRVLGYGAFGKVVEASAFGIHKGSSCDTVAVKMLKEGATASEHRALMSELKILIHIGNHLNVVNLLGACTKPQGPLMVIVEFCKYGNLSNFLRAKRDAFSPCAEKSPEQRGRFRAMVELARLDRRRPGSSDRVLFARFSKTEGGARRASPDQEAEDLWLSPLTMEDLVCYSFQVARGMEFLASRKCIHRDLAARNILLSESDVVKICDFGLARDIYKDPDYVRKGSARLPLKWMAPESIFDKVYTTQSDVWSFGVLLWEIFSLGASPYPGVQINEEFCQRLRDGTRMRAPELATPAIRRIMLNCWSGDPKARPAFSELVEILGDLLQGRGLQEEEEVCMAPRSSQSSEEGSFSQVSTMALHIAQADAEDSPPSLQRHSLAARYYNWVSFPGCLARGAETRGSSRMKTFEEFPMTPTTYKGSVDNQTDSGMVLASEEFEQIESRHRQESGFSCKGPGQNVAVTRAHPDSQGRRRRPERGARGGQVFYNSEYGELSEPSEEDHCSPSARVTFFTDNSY

[20] = target: Serine/threonine-protein kinase MRCK alpha (Homo sapiens) (UniProt Q5VT25); assay: Binding affinity to wild-type human partial length MRCKA (L57 to V418 residues) expressed in bacterial expression system assessed as residual binding level at 10 uM by Kinomescan method relative to control
[21] = target: Tyrosine-protein kinase Fyn (Homo sapiens) (UniProt P06241); assay: Binding affinity to wild-type human partial length FYN (T243 to L534 residues) expressed in bacterial expression system assessed as residual binding level at 10 uM by Kinomescan method relative to control
[22] = target: Cyclin-dependent kinase 4 (Homo sapiens) (UniProt P11802); assay: Binding affinity to wild-type human full length CDK4 (M1 to E303 residues) expressed in mammalian expression system assessed as residual binding level at 10 uM by Kinomescan method relative to control
Chain of Cyclin-dependent kinase 4 (Homo sapiens) (P11802 whole entry, the tested form may be a part): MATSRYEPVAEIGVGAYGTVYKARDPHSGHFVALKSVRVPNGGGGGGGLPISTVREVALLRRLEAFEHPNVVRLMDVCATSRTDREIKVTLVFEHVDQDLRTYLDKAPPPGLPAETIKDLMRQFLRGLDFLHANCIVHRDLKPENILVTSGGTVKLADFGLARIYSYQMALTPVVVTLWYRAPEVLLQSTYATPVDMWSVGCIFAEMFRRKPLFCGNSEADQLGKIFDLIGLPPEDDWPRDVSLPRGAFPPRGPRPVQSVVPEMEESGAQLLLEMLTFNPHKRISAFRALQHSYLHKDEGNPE

[23] = target: Ribosomal protein S6 kinase alpha-1 (Homo sapiens) (UniProt Q15418); assay: Binding affinity to wild-type human partial length C-terminal RSK1 kinase domain 2 (P360 to L681 residues) expressed in bacterial expression system assessed as residual binding level at 10 uM by Kinomescan method relative to control
[24] = target: G protein-coupled receptor kinase 4 (Homo sapiens) (UniProt P32298); assay: Binding affinity to wild-type human full length GRK4 (M1 to C578 residues) expressed in bacterial expression system assessed as residual binding level at 10 uM by Kinomescan method relative to control
[25] = target: Inhibitor of nuclear factor kappa-B kinase subunit epsilon (Homo sapiens) (UniProt Q14164); assay: Binding affinity to wild-type human full length IKK-epsilon (M1 to V716 residues) expressed in mammalian expression system assessed as residual binding level at 10 uM by Kinomescan method relative to control

`O=C(Nc1cc(-c2cn(CCNc3c4c(nc5ccccc35)CCCC4)nn2)ccn1)Nc1cccc2c1C1CCCCN1C2=O` (racemic) showed an Activity [1] of 72%, an Activity [2] of 52% and an Activity [3] of 3.9%. It also gave an Activity [4] of 2.4%, an Activity [5] of 39% and an Activity [6] of 77%. The Activity [7] was 73%, the Activity [8] was 100% and the efflux ratio [9] was 1.51. The Activity [10] was 72%, the Activity [11] was 57% and the Activity [12] was 13%. For the same compound, the Activity [13] was 53%, the Activity [14] was 15% and the Activity [15] was 36%. The Activity [16] was 100%, the Activity [17] was 24% and the Activity [18] was 95%. For the same compound, the Activity [19] was 2.7%, the Activity [20] was 97% and the Activity [21] was 74%. For the same compound, the Activity [22] was 3%, the Activity [23] was 53% and the Activity [24] was 7%. The Activity [25] was 52%.
